Data on 5 molecules can be found in US20060079463A1 (priority 2003, published 2006).

For data set [1] the following is noted: human, in vivo; cited from earlier work.
For a further data set, the system named is Mouse Hepatoma H22. In words: Kunming mouse Hepatoma H22 model, in vivo tumor growth. Particulars: for Compared to Glucose group Inhibition (%) / Compared to Saline group Inhibition (%) / Tumor size Mean ± SD: Table 6.2; for Compared to Glucose group Inhibition (%) / Compared to Saline group Inhibition (%) / Tumor size Mean ± SD / Tumor Size (Mean ± SD, g) / Tumor Inhibition (%): 10 days; for Tumor Size (Mean ± SD, g) / Tumor Inhibition (%): Table 2.2; for Tumor Inhibition (%): vs saline. The procedure: (§1) (2) Kunming mouse Hepatoma H22 model: Mouse Hepatoma H22 ascites tumor cells, 1×10E6 cells in 0.2 ml saline per mouse, were injected subcutaneously to the right axillary space of 5- to 6-week old Kunming mice.
(§2) C. […] The amount of either tested drug for one kg mouse was prepared as 10 ml solution, and 10 micro-liters per gram of mouse were injected intraperitoneally, once or twice daily, for 10 consecutive days for the Kunming mice with Sarcoma S-180 and Hepatoma H22, and for 15 consecutive days for C57BL/6 mice with melanoma B16. 50% glucose, 30 ml/kg, was given by gavage to selected groups of mice receiving the tested drug 60 to 90 minutes before each injection. One group of mice received saline only while another group of mice received the glucose treatment without the tested drug; these groups served as the saline-only control and the glucose-only control, respectively. A third group of mice received intraperitoneal injection of cyclophosphamide (CTX), or 5-Fluorouracil (5FU), 25 to 50 mg/kg body weight, was included in some experiments as positive control. At the end of the experiment, mouse body weight was taken, and the Sarcoma S-180, or Hepatoma H22 tumors were dissected and weighted, while the tumor size of melanoma B16 was measured using a caliper. Melanoma B16 tumor volume was calculated using the following equation: Tumor volume=S*S*L*0.5, where S is the short diameter, and L stands for long diameter of the tumor according to Beck M T et al. (Cancer Research 63:3598, 2003).

A further data set deals with Mouse Sarcoma S-180. In words: Kunming mouse Sarcoma S-180 model, in vivo tumor growth. The following applies: for Tumor Size (Mean ± SD, g) / Tumor Inhibition (%) / Tumor Weight (Mean ± SD, g) / Tumor Inhibition Rate (%): 10 days; for Tumor Weight (Mean ± SD, g) / Tumor Inhibition Rate (%): Table 3.2. The protocol:
(§3) (1) Kunming mouse Sarcoma S-180 model: Mouse Sarcoma S-180 ascites tumor cells, 1×10E6 cells resuspended in 0.2 ml saline per mouse, were injected subcutaneously to the right axillary space of 5- to 6-week old Kunming mice.
as §2

Data set [2] relates to human melanoma xenographts. Particulars: a dose of MIBG under hyperglycemic conditions, SCID mice; cited from earlier work.
A short description of data set [3]: Toxicity observation during URIN and MAIN administration in tumor-bearing mice. Format: in vivo. The following applies: i.p., up to 4480 mg/kg once or twice daily. The protocol: as §2
For data set [4] the following is noted: cited from earlier work.
The test system of another data set is Mouse melanoma B16. Nature of the data set: C57BL/6 mouse melanoma B16 model, tumor growth. Format: in vivo. Particulars: for Tumor Size (Mean ± SD, mm3) / Tumor Inhibition (%): Table 4.2, 1 dose/day, 15 days; for Tumor Inhibition (%): vs saline. The protocol:
(§4) (3) C57BL/6 mouse melanoma B16 model: Mouse melanoma B16 cells, 1×10E7 cells in 0.2 ml of saline per mouse, were injected subcutaneously into right axillary space of 6 to 8 week old C57BL/6 mice. The mice were randomly divided into groups after tumor cell inoculation.
as §2

Data set [5] can be described thus: Body weight of mice with B16 melanoma. Particulars: Table 4.1; CTX 50 mg/kg i.p., 1 dose/day, 15 days. The procedure: as §4
as §2, with “A third group of mice received intraperitoneal injection of cyclophosphamide (CTX), or 5-Fluorouracil (5FU), 25 to 50 mg/kg body weight, was included in some experiments as positive control.” left out

Data set [6] in a line: Body weight of mice bearing Sarcoma S-180. Particulars: CTX 30 mg/kg i.p., 1 dose/day, 10 days. The protocol:
as §3, §2

A short description of data set [7]: Body weight of mice bearing Hepatoma H22. Particulars: Table 2.1; CTX 25 mg/kg i.p., 1 dose/day, 10 days. The procedure:
as §1
as §2, with “A third group of mice received intraperitoneal injection of cyclophosphamide (CTX), or 5-Fluorouracil (5FU), 25 to 50 mg/kg body weight, was included in some experiments as positive control.” left out

Where [8] appears, read: MAIN H 3750 mg/kg i.p., 2 doses/day, glucose pre-treatment.
[9] abbreviates: MAIN L 1500 mg/kg i.p., 2 doses/day, glucose pre-treatment.
[10] abbreviates: MAIN M 2500 mg/kg i.p., 2 doses/day, glucose pre-treatment.
Where [11] appears, read: URIN 4480 mg/kg i.p., 2 doses/day, no glucose.
[12] abbreviates: URIN H 4480 mg/kg i.p., glucose pre-treatment.
[13] abbreviates: URIN L 1680 mg/kg i.p., glucose pre-treatment.

For `C1N2CN3CN1CN(C2)C3.O=C(O)C(O)c1ccccc1` (stereo not shown) [MAIN, methenamine mandelate], the “Side effects resulting from long term use” value in data set [1] was “negligible”. Besides, the “Compared to Glucose group Inhibition (%)” value is on record as 38.7% with Mouse Hepatoma H22 (setting [8]), 6.0% in the data set with Mouse Hepatoma H22 (setting [9]) and 6.5% in the data set on Mouse Hepatoma H22 (setting [10]). For the same molecule, the results for the “Compared to Saline group Inhibition (%)” value with Mouse Hepatoma H22 (setting [8]), in the data set with Mouse Hepatoma H22 (setting [9]) and with Mouse Hepatoma H22 (setting [10]) were 51.4%, 25.5% and 25.5%, respectively. Moreover, the “Tumor size Mean ± SD” value in the data set with Mouse Hepatoma H22 (setting [8]) is recorded as 1.03 ± 0.66 g; in the data set with Mouse Hepatoma H22 (setting [9]) it was 1.58 ± 0.42 g; in the data set with Mouse Hepatoma H22 (setting [10]) it was 1.57 ± 0.74 g. Moreover, the “Tumor Size (Mean ± SD, g)” value came to 1.25 ± 0.41 g in the data set on Mouse Sarcoma S-180 (Table 5.2, MAIN H 3714 mg/kg i.p., 2 doses/day, glucose pre-treatment); 2.14 ± 0.60 g in the data set on Mouse Sarcoma S-180 (Table 5.2, MAIN L 1485 mg/kg i.p., 2 doses/day, glucose pre-treatment); 1.85 ± 0.62 g in the data set on Mouse Sarcoma S-180 (Table 5.2, MAIN M 2320 mg/kg i.p., 2 doses/day, glucose pre-treatment). For the same molecule, the “Tumor Inhibition (%)” value with Mouse Sarcoma S-180 (Table 5.2, MAIN H 3714 mg/kg i.p., 2 doses/day, glucose pre-treatment, vs glucose group) came out at 45.9%; in the data set on Mouse Sarcoma S-180 (Table 5.2, MAIN L 1485 mg/kg i.p., 2 doses/day, glucose pre-treatment, vs glucose group), 7.4%; in the data set with Mouse Sarcoma S-180 (Table 5.2, MAIN M 2320 mg/kg i.p., 2 doses/day, glucose pre-treatment, vs glucose group), 19.9%.

Regarding `N=C(N)NCc1cccc(I)c1` [MIBG, m-Iodpbenzylguanidine], the “Reduction of extracellular pH of tumor” value in data set [2] was “up to 0.59 units”.

For `O=c1[nH]cc(F)c(=O)[nH]1` [5FU, 5-Fluorouracil], in the data set on Mouse Hepatoma H22 (5FU 25 mg/kg i.p., 1 dose/day), the “Compared to Glucose group Inhibition (%)” value is on record as 71.4%, the “Compared to Saline group Inhibition (%)” value was 77.4% and the “Tumor size Mean ± SD” value is 0.48 ± 0.25 g.

In the case of `C1N2CN3CN1CN(C2)C3` [URIN, Methenamine], in data set [3], the “Death from drug toxicity” value is “No mouse died of URIN toxicity”. Also, the “Stability in a pH-neutral medium” value in data set [4] (pH-neutral medium) is on record as “very stable”. Also, in data set [4] (serum and normal tissue), the “Liberation of formaldehyde in serum and normal tissue” value is listed as “does not liberate formaldehyde”. Further, the “Tumor Size (Mean ± SD, g)” value with Mouse Hepatoma H22 (setting [11]) is 1.37 ± 0.39 g; in the data set on Mouse Sarcoma S-180 (Table 1.2, URIN 4480 mg/kg i.p., 2 doses/day, no glucose) it was 1.07 ± 0.31 g. Also, the “Tumor Inhibition (%)” value in the data set with Mouse Hepatoma H22 (setting [11]) is given as 41.2%; in the data set on Mouse melanoma B16 (setting [12]), 32.1%; with Mouse melanoma B16 (setting [13]) it was 16.7%; in the data set with Mouse melanoma B16 (URIN M 2800 mg/kg i.p., glucose pre-treatment, value in bracket = increased rate) it was “(−14.6%)”; with Mouse Sarcoma S-180 (Table 1.2, URIN 4480 mg/kg i.p., 2 doses/day, no glucose, vs saline), 21.9%. In the data set on Mouse Hepatoma H22 (administration of URIN), the “In vivo growth of mouse tumor Hepatoma H22 (conclusion)” value is reported as “significantly inhibited”. Besides, the “Tumor Size (Mean ± SD, mm3)” value came out at 2755 ± 1098 mm3 in the data set with Mouse melanoma B16 (setting [12]); 3376 ± 1419 mm3 with Mouse melanoma B16 (setting [13]); 4241 ± 1834 mm3 in the data set on Mouse melanoma B16 (URIN M 2800 mg/kg i.p., glucose pre-treatment). Moreover, in the data set on Mouse melanoma B16 (administration of URIN), the “In vivo growth of mouse tumor B16 Melanoma (conclusion)” value was “significantly inhibited”. Moreover, the “Tumor Weight (Mean ± SD, g)” value with Mouse Sarcoma S-180 (URIN H 4480 mg/kg i.p., 2 doses/day, glucose pre-treatment) was 1.25 ± 0.41 g; with Mouse Sarcoma S-180 (URIN L 1680 mg/kg i.p., 2 doses/day, glucose pre-treatment), 1.54 ± 0.56 g; with Mouse Sarcoma S-180 (URIN M 2800 mg/kg i.p., 2 doses/day, glucose pre-treatment), 1.57 ± 0.50 g. Further, the “Tumor Inhibition Rate (%)” value in the data set with Mouse Sarcoma S-180 (URIN H 4480 mg/kg i.p., 2 doses/day, glucose pre-treatment, vs saline) was 36.2%; in the data set with Mouse Sarcoma S-180 (URIN L 1680 mg/kg i.p., 2 doses/day, glucose pre-treatment, vs saline), 21.4%; in the data set on Mouse Sarcoma S-180 (URIN M 2800 mg/kg i.p., 2 doses/day, glucose pre-treatment, vs saline) it was 19.9%. Further, the “In vivo growth of mouse tumor Sarcoma S-180 (conclusion)” value in the data set on Mouse Sarcoma S-180 (administration of URIN) is listed as “significantly inhibited”.

Turning to `O=P1(N(CCCl)CCCl)NCCCO1` (stereo not shown) [CTX, cyclophosphamide], the “Tumor Size (Mean ± SD, g)” value came to 1.21 ± 0.37 g in the data set on Mouse Hepatoma H22 (CTX 25 mg/kg i.p., 1 dose/day) and 0.53 ± 0.14 g with Mouse Sarcoma S-180 (Table 1.2, CTX 30 mg/kg i.p., 1 dose/day). Also, the “Tumor Inhibition (%)” value is reported as 48.1% in the data set with Mouse Hepatoma H22 (CTX 25 mg/kg i.p., 1 dose/day); 97% in the data set with Mouse melanoma B16 (CTX 50 mg/kg i.p.); 61.3% in the data set on Mouse Sarcoma S-180 (Table 1.2, CTX 30 mg/kg i.p., 1 dose/day, vs saline). Moreover, the “Body weight (Mean ± SD, g) End” value came to 18.6 ± 1.6 g in data set [5], 23.5 ± 1.7 g in [6] (Table 1.1), 23.0 ± 2.9 g in [6] (Table 3.1) and 32.6 ± 2.5 g in data set [7]. Moreover, the “Body weight (Mean ± SD, g) Start” value is listed as 20.3 ± 1.5 g in [5], 21.9 ± 1.1 g in data set [6] (Table 1.1), 21.4 ± 1.0 g in data set [6] (Table 3.1) and 24.6 ± 1.0 g in data set [7]. In the data set with Mouse melanoma B16 (CTX 50 mg/kg i.p.), the “Tumor Size (Mean ± SD, mm3)” value stood at 118 ± 100 mm3. Also, the “Tumor Weight (Mean ± SD, g)” value with Mouse Sarcoma S-180 (CTX 30 mg/kg i.p., 1 dose/day) amounted to 0.53 ± 0.22 g. Also, in the data set on Mouse Sarcoma S-180 (CTX 30 mg/kg i.p., 1 dose/day, vs saline), the “Tumor Inhibition Rate (%)” value amounted to 73.0%.
